Test system: lymphoma cell lines
Test: Detection of apoptotic cells (Annexin V-FITC, flow cytometry)
Assay type: cell-based, human
Settings: 250 nM, 72 hrs; eight lymphoma cell lines
Procedure: Apoptosis was assessed, on cells treated with DMSO or different doses of ST7612AA1, by Annexin V-FITC apoptosis detection kit (BD Biosciences), according to the manufacturer's recommendations, on a FACScan flow cytometer (BD Biosciences).

CC(=O)SCCCCC[C@H](NC(=O)[C@H]1CCC(=O)N1)C(=O)Nc1ccccc1 [ST7612AA1]
apoptosis (Annexin V positive cells): moderate apoptosis in three out of eight lymphoma cell lines

Reference: PMC4467398, “Preclinical antitumor activity of ST7612AA1: a new oral thiol-based histone deacetylase (HDAC) inhibitor” (Oncotarget, 2014)
